In US20220331303A1, “USE OF AN OREXIN 2 RECEPTOR AGONIST FOR THE TREATMENT OF EXCESSIVE SLEEPINESS” (Takeda Pharmaceutical Company Limited, priority 2019, published 2022):
Where two headings read alike, the source gives them in different places.

Experiment: Single-dose plasma PK of Compound A in subjects with OSA
Type: in vivo, human
Settings: for half-life: read-out: t½, z (converted)
Description: The treatment periods began on Day 1 of Treatment Period 1 (Study Day 1) with Treatment Periods 2 and 3 commencing on Study Days 3 and 5, respectively. In the morning of Day 1 of Treatment Period 1, eligible subjects were randomized to 1 of the 6 sequence groups as listed in Table 36. After randomization, the subject was dosed in 3 treatment periods according to the order defined by the sequence group to which he/she was randomized. On Day 1 of each treatment period, Compound A or placebo was administered as a single 9-hour IV infusion commencing at approximately 08:00. The infusion was terminated at approximately 17:00. On Day 1 of each treatment period, four 40-minute maintenance of wakefulness test (MWT) sessions was performed at 2, 4, 6, and 8 hours after the start of the infusion. Subjects were required to stay awake in between the MWT sessions.
On Day 1 of Treatment Period 1, all eligible subjects were randomized and received the first dose of study drug. Compound A or placebo was administered as a single 9-hour IV infusion commencing at approximately 08:00. On each dosing day (Study Days 1, 3, and 5), 40-minute MWT sessions were performed at 2, 4, 6, and 8 hours after the start of the infusion. There was a minimum 24-hour washout interval between the end of the infusion and the commencement of treatment in subsequent treatment periods to allow for complete elimination of the preceding treatment effect. The KSS and PVT were collected per the Schedule of Study Procedures. Blood samples for determination of Compound A plasma concentrations were collected predose and at specified time points postdose, Safety assessments were recorded. During the study, AEs were recorded, clinical laboratory tests, vital signs, and safety ECGs were obtained. Study Days 2, 4, and 6 were washout days. Subjects were discharged from the unit following completion of study exit procedures in the afternoon of Study Day 6 (Day 2 of Treatment Period 3). Subjects were contacted by telephone approximately 7 days (±2 days) following unit discharge for a safety check.
Blood samples used for PK analysis of Compound A was collected according to Table 38.

[1] = human, intravenous, 44 mg single dose, subjects with OSA, plasma, mean (PK set)
[2] = human, intravenous, 112 mg single dose, subjects with OSA, plasma, mean (PK set)

Plasma Concentration Mean (44 mg, 0 h After Start of Infusion): BLQ
Plasma Concentration Mean (44 mg, 0.17 h From End of Infusion): 53.69 ng/mL
Plasma Concentration Mean (44 mg, 1 h After Start of Infusion): 59.80 ng/mL
Plasma Concentration Mean (44 mg, 1 h From End of Infusion): 29.90 ng/mL
Plasma Concentration Mean (44 mg, 3 h After Start of Infusion): 92.43 ng/mL
Plasma Concentration Mean (44 mg, 4 h From End of Infusion): 15.22 ng/mL
Plasma Concentration Mean (44 mg, 5 h After Start of Infusion): 101.7 ng/mL
Plasma Concentration Mean (44 mg, 7 h After Start of Infusion): 86.37 ng/mL
Plasma Concentration Mean (44 mg, 9 h After Start of Infusion): 90.42 ng/mL
Plasma Concentration Mean (44 mg, 15 h From End of Infusion (24 hours from start of infusion)): 2.462 ng/mL
Ceoi (112 mg single dose, subjects with OSA, plasma, mean (PK set)): 211.6 ng/mL
Plasma Concentration Mean (112 mg, 0 h After Start of Infusion): BLQ
Plasma Concentration Mean (112 mg, 0.17 h From End of Infusion): 139.3 ng/mL
Plasma Concentration Mean (112 mg, 1 h After Start of Infusion): 162.9 ng/mL
Plasma Concentration Mean (112 mg, 1 h From End of Infusion): 77.87 ng/mL
Plasma Concentration Mean (112 mg, 3 h After Start of Infusion): 208.7 ng/mL
Plasma Concentration Mean (112 mg, 4 h From End of Infusion): 34.12 ng/mL
Plasma Concentration Mean (112 mg, 5 h After Start of Infusion): 222.3 ng/mL
Plasma Concentration Mean (112 mg, 7 h After Start of Infusion): 208.9 ng/mL
Plasma Concentration Mean (112 mg, 9 h After Start of Infusion): 211.6 ng/mL
Plasma Concentration Mean (112 mg, 15 h From End of Infusion (24 hours from start of infusion)): 5.962 ng/mL
AUC(0-inf) [1]: 899 ng·h/mL
AUC(0-t) [1]: 884 ng·h/mL
Cmax [1]: 102 ng/mL
clearance [1]: 860 mL/min
concentration at 9 h (human, intravenous, 44 mg single dose, subjects with OSA, plasma, mean (PK set), read-out: Ceoi): 90.4 ng/mL
half-life [1]: 3.79 h
AUC(0-inf) [2]: 2060 ng·h/mL
AUC(0-t) [2]: 2040 ng·h/mL
Cmax [2]: 230 ng/mL
clearance [2]: 954 mL/min
half-life [2]: 3.93 h
Vd (human, plasma, intravenous, 44 mg, 44 mg single dose, subjects with OSA, plasma, mean (PK set), read-out: Vss): 129 L
Vd (human, plasma, intravenous, 44 mg, 44 mg single dose, subjects with OSA, plasma, mean (PK set), read-out: Vz): 278 L
Vd (human, plasma, intravenous, 112 mg, 112 mg single dose, subjects with OSA, plasma, mean (PK set), read-out: Vss): 139 L
Vd (human, plasma, intravenous, 112 mg, 112 mg single dose, subjects with OSA, plasma, mean (PK set), read-out: Vz): 319 L
Structure (SMILES): COC(=O)N1CCC[C@H](NS(C)(=O)=O)[C@@H]1CO[C@H]1CC[C@@H](c2ccccc2)CC1 [Compound A, methyl (2R,3S)-3-((methylsulfonyl)amino)-2-(((cis-4-phenylcyclohexyl)oxy)methyl)piperidine-1-carboxylate]
